What was measured:
Assay type in all cases: cell-based
MCF7 breast cancer cells = assay: Cancer cell survival (CellTiter-Glo), MCF7; settings: Homo sapiens, 72 h
Procedure, shortened: (§1)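 Cells seeded at 4×10^3 cells/well, incubated overnight, then treated in triplicate at nine concentrations for 72 h at 37 C, 5% CO2. Viability by CellTiter-Glo luminescence, survival % normalized to untreated and medium controls; IC50 derived.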

[1] = test system: Daudi lymphoma cancer cells; assay: Cancer cell survival (CellTiter-Glo), Daudi; settings: Homo sapiens, 72 h
Procedure, shortened: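 Daudi cells (4×10^3/well) were exposed for 72 h at 37 °C to nine concentrations of compound, added as 10× solutions spanning 1 μM–10 mM (fatty acids) or 100 nM–1 mM (others). CellTiter-Glo luminescence gave % survival versus untreated, medium-blank corrected; IC50 derived.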

A-431 skin cancer cells = assay: Cancer cell survival (CellTiter-Glo), A-431; settings: Homo sapiens, A-431 cells, 72 h
Procedure, shortened: as §1

A549 lung cancer cells = assay: Cancer cell survival (CellTiter-Glo), A549; settings: Homo sapiens, 72 h
Procedure, shortened: as §1

AGS stomach cancer cells = assay: Cancer cell survival (CellTiter-Glo), AGS
Procedure, shortened: as §1

[2] = test system: PC-3 prostate cancer cells; assay: Cancer cell survival (CellTiter-Glo), PC-3; settings: Homo sapiens, PC-3 cells, 72 h
Procedure, shortened: as §1

[3] = test system: HCT 116 colorectal cancer cells; assay: Cancer cell survival (CellTiter-Glo), HCT 116; settings: Homo sapiens, HCT 116 cells, 72 h
Procedure, shortened: as §1

T24 bladder cancer cells = assay: Cancer cell survival (CellTiter-Glo), T24; settings: Homo sapiens
Procedure, shortened: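 T24 cells seeded at 4×10^3 cells/well overnight, then exposed 72 h at 37 C, 5% CO2 to nine concentrations in triplicate. Survival measured by CellTiter-Glo luminescence relative to untreated and medium controls; IC50 derived.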

[4] = 101 nM, read-out: Cell survival at given concentration
[5] = 318 nM, read-out: Cell survival at given concentration
[6] = 1 μM, read-out: Cell survival at given concentration
[7] = 3 μM, read-out: Cell survival at given concentration
[8] = 10 μM, read-out: Cell survival at given concentration
[9] = 32 μM, read-out: Cell survival at given concentration
[10] = 100 μM, read-out: Cell survival at given concentration
[11] = 316 μM, read-out: Cell survival at given concentration
[12] = 1000 μM, read-out: Cell survival at given concentration

Oc1cc(O)c2c(c1)O[C@H](c1cc(O)c(O)c(O)c1)[C@H](O)C2 [EGC, epigallocatechin]
viability at 0.101 µM (MCF7 breast cancer cells; [4]): 93%
viability at 0.318 µM (MCF7 breast cancer cells; [5]): 97%
viability at 1 µM (MCF7 breast cancer cells; [6]): 97%
viability at 3 µM (MCF7 breast cancer cells; [7]): 102%
viability at 10 µM (MCF7 breast cancer cells; [8]): 92%
viability at 32 µM (MCF7 breast cancer cells; [9]): 100%
viability at 100 µM (MCF7 breast cancer cells; [10]): 90%
viability at 316 µM (MCF7 breast cancer cells; [11]): 56%
viability at 1000 µM (MCF7 breast cancer cells; [12]): 2%
IC50 (MCF7 breast cancer cells; Table 5.1): 355 µM
viability at 0.101 µM [1, 4]: 100%
viability at 0.318 µM [1, 5]: 101%
viability at 1 µM [1, 6]: 101%
viability at 3 µM [1, 7]: 103%
viability at 10 µM [1, 8]: 102%
viability at 32 µM [1, 9]: 99%
viability at 100 µM [1, 10]: 0%
viability at 316 µM [1, 11]: 0%
viability at 1000 µM [1, 12]: 0%
IC50 ([1]; Table 4.1): 47.5 µM
viability at 0.101 µM (A-431 skin cancer cells; [4]): 103%
viability at 0.318 µM (A-431 skin cancer cells; [5]): 103%
viability at 1 µM (A-431 skin cancer cells; [6]): 102%
viability at 3 µM (A-431 skin cancer cells; [7]): 102%
viability at 10 µM (A-431 skin cancer cells; [8]): 98%
viability at 32 µM (A-431 skin cancer cells; [9]): 96%
viability at 100 µM (A-431 skin cancer cells; [10]): 95%
viability at 316 µM (A-431 skin cancer cells; [11]): 60%
viability at 1000 µM (A-431 skin cancer cells; [12]): 0%
IC50 (A-431 skin cancer cells; Table 9.1): 385 µM
viability at 0.101 µM (A549 lung cancer cells; [4]): 98%
viability at 0.318 µM (A549 lung cancer cells; [5]): 100%
viability at 1 µM (A549 lung cancer cells; [6]): 100%
viability at 3 µM (A549 lung cancer cells; [7]): 100%
viability at 10 µM (A549 lung cancer cells; [8]): 94%
viability at 32 µM (A549 lung cancer cells; [9]): 96%
viability at 100 µM (A549 lung cancer cells; [10]): 94%
viability at 316 µM (A549 lung cancer cells; [11]): 81%
viability at 1000 µM (A549 lung cancer cells; [12]): 9%
IC50 (A549 lung cancer cells; Table 7.1): 640 µM
viability at 0.101 µM (AGS stomach cancer cells; 72 h, 101 nM, read-out: Cell survival at given concentration): 103%
viability at 0.318 µM (AGS stomach cancer cells; 72 h, 318 nM, read-out: Cell survival at given concentration): 103%
viability at 1 µM (AGS stomach cancer cells; 72 h, 1 μM, Table 10.1, read-out: Cell survival at given concentration): 108%
viability at 3 µM (AGS stomach cancer cells; 72 h, 3 μM, Table 10.1, read-out: Cell survival at given concentration): 105%
viability at 10 µM (AGS stomach cancer cells; 72 h, 10 μM, Table 10.1, read-out: Cell survival at given concentration): 104%
viability at 32 µM (AGS stomach cancer cells; 72 h, 32 μM, Table 10.1, read-out: Cell survival at given concentration): 104%
viability at 100 µM (AGS stomach cancer cells; 72 h, 100 μM, Table 10.1, read-out: Cell survival at given concentration): 107%
viability at 316 µM (AGS stomach cancer cells; 72 h, 316 μM, read-out: Cell survival at given concentration): 80%
viability at 1000 µM (AGS stomach cancer cells; 72 h, 1000 μM, read-out: Cell survival at given concentration): 8%
IC50 (AGS stomach cancer cells; Table 10.1): 477 µM
viability at 0.101 µM [2, 4]: 103%
viability at 0.318 µM [2, 5]: 99%
viability at 1 µM [2, 6]: 100%
viability at 3 µM [2, 7]: 101%
viability at 10 µM [2, 8]: 102%
viability at 32 µM [2, 9]: 98%
viability at 100 µM [2, 10]: 96%
viability at 316 µM [2, 11]: 96%
viability at 1000 µM [2, 12]: 36%
IC50 ([2]; Table 8.1): 899 µM
viability at 0.101 µM [3, 4]: 99%
viability at 0.318 µM [3, 5]: 98%
viability at 1 µM [3, 6]: 100%
viability at 3 µM [3, 7]: 101%
viability at 10 µM [3, 8]: 99%
viability at 32 µM [3, 9]: 97%
viability at 100 µM [3, 10]: 1%
viability at 316 µM [3, 11]: 0%
viability at 1000 µM [3, 12]: 0%
IC50 ([3]; Table 6.1): 50.3 µM
viability at 0.101 µM (T24 bladder cancer cells; T-24, 101 nM, 72 h, read-out: Cell survival at given concentration): 99%
viability at 0.318 µM (T24 bladder cancer cells; T-24, 318 nM, 72 h, read-out: Cell survival at given concentration): 103%
viability at 1 µM (T24 bladder cancer cells; T-24, 1 μM, 72 h, read-out: Cell survival at given concentration): 103%
viability at 3 µM (T24 bladder cancer cells; T-24, 3 μM, 72 h, read-out: Cell survival at given concentration): 101%
viability at 10 µM (T24 bladder cancer cells; T-24, 10 μM, 72 h, read-out: Cell survival at given concentration): 100%
viability at 32 µM (T24 bladder cancer cells; T-24, 32 μM, 72 h, read-out: Cell survival at given concentration): 84%
viability at 100 µM (T24 bladder cancer cells; T-24, 100 μM, 72 h, read-out: Cell survival at given concentration): 0%
viability at 316 µM (T24 bladder cancer cells; T-24, 316 μM, 72 h, read-out: Cell survival at given concentration): 0%
viability at 1000 µM (T24 bladder cancer cells; T-24, 1000 μM, 72 h, read-out: Cell survival at given concentration): 0%
IC50 (T24 bladder cancer cells; T-24, 72 h, Table 3.1, read-out: 1050): 40 µM
